Data reported in patent US20110262442A1, “COMPOSITIONS FOR TREATING CNS DISORDERS” (Adenios, Inc., priority 2009, published 2011).

Columns and labels:
blood brain barrier [1] = assay: Fluorimetric analysis of labeled dextrans in brain after i.v. drug administration, rats; format: in vivo; conditions: i.v. administration, 10,000 Da dextrans
Experimental: C57BL/6 mice from Jackson Laboratories were used as wild types. All mice used were aged 7-9 weeks and weighed between 20-25 g. All rats were aged 8 weeks and weighed 200-220 g. Mice and rats were bred and housed under specific pathogen-free conditions. The adenosine receptor agonists NECA, CCPA and CGS 21860 were purchased from Tocris. Each was dissolved in DMSO then diluted in PBS to the desired concentration; in most cases final DMSO concentrations were <0.5% (vol/vol). For vehicle controls, DMSO was diluted in PBS to the same concentration. Dehydrated dextrans labeled with either FITC or Texas Red were purchased from Invitrogen and re-suspended in PBS to 10 mg ml^-1. All experiments involving dextran injection used 0.5 mg dextran in PBS. In experiments where drug and dextran were injected concomitantly, 0.5 mg of dextran was mixed with the drug to the desired concentration in a final volume of 200 μl. All injections were retro-orbital i.v. with a 27-gauge needle. In the SCH 58261 experiment, groups were administered vehicle or SCH 58261 for 4 d. Vehicle/drug and dextrans were injected on day 5 and tissues were collected 3 h after vehicle/drug administration. […] FITC-dextran was detected at 488/519 (excitation/emission) and Texas Red-dextran was detected at 592/618.

brain endothelial cells = assay: Actin stress fiber induction in brain endothelial cells; format: cell-based
Experimental: To test this brain endothelial cells were treated with either CCPA (to agonize A1 adenosine receptors) or […] (to agonize the A2A adenosine receptor).

blood brain barrier [2] = assay: Fluorimetric analysis of labeled dextrans in brain after i.v. drug administration; format: in vivo, mice
Experimental: C57BL/6 mice from Jackson Laboratories were used as wild types. All mice used were aged 7-9 weeks and weighed between 20-25 g. All rats were aged 8 weeks and weighed 200-220 g. Mice and rats were bred and housed under specific pathogen-free conditions.
The adenosine receptor agonists NECA, CCPA and CGS 21860 were purchased from Tocris. Each was dissolved in DMSO then diluted in PBS to the desired concentration; in most cases final DMSO concentrations were <0.5% (vol/vol). For vehicle controls, DMSO was diluted in PBS to the same concentration. Dehydrated dextrans labeled with either FITC or Texas Red were purchased from Invitrogen and re-suspended in PBS to 10 mg ml^−1. All experiments involving dextran injection used 0.5 mg dextran in PBS. In experiments where drug and dextran were injected concomitantly, 0.5 mg of dextran was mixed with the drug to the desired concentration in a final volume of 200 μl. All injections were retro-orbital i.v. with a 27-gauge needle. In the SCH 58261 experiment, groups were administered vehicle or SCH 58261 for 4 d. Vehicle/drug and dextrans were injected on day 5 and tissues were collected 3 h after vehicle/drug administration. In Lexiscan experiments, Lexiscan was administered i.v. with 3 injections, 5 min apart and tissues were collected at 15 min unless otherwise indicated.
In dose-response experiments and experiments with the A1 AR and A2A AR knock-out mice, drugs and dextrans were injected concomitantly. After 3 h, the mice were anesthetized with ketamine/xylazine and subjected to a nose cone containing isoflurane. They were perfused with 25-50 ml ice-cold PBS through the left ventricle of the heart then decapitated. Their brains were removed, weighed and frozen for later analysis.
Ice-cold 50 mM Tris-Cl (pH 7.6) was added to frozen brains (100 μl per 100 mg brain) and were to thawed on ice. They were homogenized manually with ˜45 strokes of a dounce homogenizer in plastic 1.5 ml microfuge tubes then spun at 16.1 g in a microfuge for 30 min at room temperature (rt). The supernatants were transferred to new tubes and an equal volume absolute methanol was added. The samples were spun again at 16.1 g for 30 min at rt. Supernatant (200 μl) was transferred to a Corning costar 96 well black polystyrene assay plate (clear bottom). Additionally, a series of standards containing 0.001-10 μg ml^−1 dextran in 50% Tris-Cl/50% absolute methanol (vol/vol) was added to each plate. Absolute concentrations of dextrans were derived from these standard curves. Fluorimetric analysis was performed on a BioTek Synergy 4. FITC-dextran was detected at 488/519 (excitation/emission) and Texas Red-dextran was detected at 592/618.

[3] = system: Experimental Autoimmune Encephalomyelitis (EAE); assay: MOG-induced EAE induction and daily scoring; format: in vivo, mice; conditions: wild type mice; 2 mg/kg (1 mg/kg i.p. and 1 mg/kg s.c.) 1 day prior to EAE induction and daily for 30 days; vs DMSO alone
From the text: Cd73^−/− mice have been previously described (Thompson et al., “Crucial Role for Ecto-5′-Nucleotidase (CD73) in Vascular Leakage During Hypoxia,” J. Exp. Med. 200:1395-1405 (2004), which is hereby incorporated by reference in its entirety) and have been backcrossed to C57BL/6 for 14 generations. Cd73 mice have no overt susceptibility to infection and appear normal based on the size and cellular composition of their lymphoid organs and their T and B cell responses in in vivo and in vitro assays (Thompson et al., “Crucial Role for Ecto-5′-Nucleotidase (CD73) in Vascular Leakage During Hypoxia,” J. Exp. Med. 200:1395-1405 (2004), which is hereby incorporated by reference in its entirety). C57BL/6 and tcrα^−/− mice on the C57BL/6 background were purchased from The Jackson Laboratories. Mice were bred and housed under specific pathogen-free conditions at Cornell University or the University of Turku. For adenosine receptor blockade experiments, mice were given drinking water supplemented with 0.6 g/L of caffeine (Sigma) or 2 mg/kg SCH58261 (1 mg/kg s.c. and 1 mg/kg i.p.) in DMSO (45% vol. in PBS) or 45% DMSO alone starting 1 day before EAE induction and continuing throughout the experiment. All procedures performed on mice were approved by the relevant animal review committee.
EAE was induced by subjecting mice to the myelin oligodendrocyte glycoprotein (“MOG”) EAE-inducing regimen as described in Swanborg, “Experimental Autoimmune Encephalomyelitis in Rodents as a Model for Human Demyelinating Disease,” Clin. Immunol. Immunopathol. 77:4-13 (1995) and Bynoe et al., “Epicutaneous Immunization with Autoantigenic Peptides Induces T Suppressor Cells that Prevent Experimental Allergic Encephalomyelitis,” Immunity 19:317-328 (2003), which are hereby incorporated by reference in their entirety. Briefly, a 1:1 emulsion of MOG35-55 peptide (3 mg/ml in PBS) (Invitrogen) and complete Freund's adjuvant (CFA, Sigma) was injected subcutaneously (50 μl) into each flank. Pertussis toxin (PTX, 20 ng) (Biological Laboratories Inc.) was given intravenously (200 μl in PBS) at the time of immunization and again 2 days later. Mice were scored daily for EAE based on disease symptom severity; 0=no disease, 0.5-1=weak/limp tail, 2=limp tail and partial hind limb paralysis, 3=total hind limb paralysis, 4=both hind limb and fore limb paralysis, 5=death. Mice with a score of 4 were euthanized.

blood brain barrier [4] = assay: FITC-Dextran extravasation through the brain endothelium (brain sections); format: in vivo, mice; conditions: wild type mice, FIG. 16
Experimental: In order to examine the effects of caffeine, a general adenosine receptor antagonist, on blood brain barrier permeability, mice were fed caffeine for several days and then injected with FITC Dextran, commonly used to assess endothelial permeability.
More particularly, mice were fed 0.6 g/l caffeine (Sigma, St. Louis, Mo.) in water or regular water ad lib for five days. Mice were injected IP with FITC Dextran (10,000 MW, Molecular Probes, Eugene, Oreg.) and after 30 minutes mice were perfused with ice cold PBS via the left ventricle. Brains were removed and snap frozen in OCT (Tissue Tek, Torrance, Calif.) and stored at −80° C. until sectioning. Tissue sections (5 μm) were stained with hematoxylin for light microscopy and with DAPI for a fluorescent counterstain.

[5] = system: CNS lymphocyte infiltration; assay: Immunohistochemistry of CD4+ infiltrating lymphocytes in brain and spinal cord after EAE induction; format: in vivo; conditions: wild type mice, day 15 post-EAE induction; 2 mg/kg daily; vs DMSO treated
From the text: (§1) Cd73^−/− mice have been previously described (Thompson et al., “Crucial Role for Ecto-5′-Nucleotidase (CD73) in Vascular Leakage During Hypoxia,” J. Exp. Med. 200:1395-1405 (2004), which is hereby incorporated by reference in its entirety) and have been backcrossed to C57BL/6 for 14 generations. Cd73 mice have no overt susceptibility to infection and appear normal based on the size and cellular composition of their lymphoid organs and their T and B cell responses in in vivo and in vitro assays (Thompson et al., “Crucial Role for Ecto-5′-Nucleotidase (CD73) in Vascular Leakage During Hypoxia,” J. Exp. Med. 200:1395-1405 (2004), which is hereby incorporated by reference in its entirety). C57BL/6 and tcrα^−/− mice on the C57BL/6 background were purchased from The Jackson Laboratories. Mice were bred and housed under specific pathogen-free conditions at Cornell University or the University of Turku. For adenosine receptor blockade experiments, mice were given drinking water supplemented with 0.6 g/L of caffeine (Sigma) or 2 mg/kg SCH58261 (1 mg/kg s.c. and 1 mg/kg i.p.) in DMSO (45% vol. in PBS) or 45% DMSO alone starting 1 day before EAE induction and continuing throughout the experiment. All procedures performed on mice were approved by the relevant animal review committee. […]

[6] = system: ICAM-1 on the choroid plexus; assay: Immunohistochemistry of ICAM-1 expression at the choroid plexus after EAE induction; format: in vivo; conditions: wild type mice, day 15 post-EAE induction; 2 mg/kg daily; vs DMSO
From the text: as §1

| SMILES | BBB permeability (blood brain barrier [1]) | actin stress fibers compared to vehicle alone (brain endothelial cells) | magnitude of increased BBB permeability compared with NECA administration (blood brain barrier [2]; i.v. administration) | BBB permeability to 10,000 Da dextrans (blood brain barrier [2]; mice, i.v., 3 injections 5 min apart, tissues collected at 15 min) | time after which FITC-dextran was detectable in the brain (blood brain barrier [2]; mice, single i.v. injection) | EAE development [3] | FITC-Dextran extravasation across the blood brain barrier (blood brain barrier [4]) | frequency of CD4+ lymphocytes in the brain and spinal cord [5] | ICAM-1 expression on the choroid plexus following EAE induction [6] | entry of 10,000 Da FITC-dextran into brain (blood brain barrier [2]; WT mice, intraperitoneal administration for 4 d, dextran on day 5) |
| --- | --- | --- | --- | --- | --- | --- | --- | --- | --- | --- |
| CNC(=O)c1cnn(-c2nc(N)c3ncn([C@@H]4O[C@H](CO)[C@@H](O)[C@H]4O)c3n2)c1 [Lexiscan] | increased BBB permeability in rats | induction of actin stress fibers was observed | much greater | increase BBB permeability to 10,000 Da dextrans | 5 min | – | – | – | – | – |
| Nc1nc2c(cnn2CCc2ccccc2)c2nc(-c3ccco3)nn12 [SCH58261, 2-(2-Furanyl)-7-(2-phenylethyl)-7H-pyrazolo[4,3-e][1,2,4]triazolo[1,5-c]pyrimidin-5-amine] | – | – | – | – | – | dramatically protected against EAE development | inhibit FITC-Dextran extravasation | significantly lower frequency | prevented the up regulation of ICAM-1 | significantly decreased entry |
